Data: patent US20210338576A1, “CANCER TREATMENT” (NOXOPHARM LIMITED, priority 2016, published 2021)

Columns and labels:
[1] = system: late-stage cancers; settings: patients with late-stage cancers (Pant et al, 2014); cited from earlier work
[2] = system: primary prostate cancer; experiment: Rectal idronoxil in olive oil (high oleic acid) base in a prostate cancer patient, PSA follow-up; type: in vivo, human
Protocol: Patient receiving chemical castration therapy presenting with undetectable testosterone and receiving Zolodex for primary prostate cancer (PSA=6.0). Patient received 400 mg idronoxil daily in olive oil base rectally for 3 weeks.

[3] = system: colo-rectal cancer cell lines (eg. HT-29, CaCo-2); settings: HT-29, CaCo-2 (Alvero et al, 2008); cited from earlier work
[4] = intravenously administered, cyclodextrin carrier (Howes et al, 2011); cited from earlier work
[5] = system: wide range of cancer cell types; settings: fold more potent than genistein; cited from earlier work
[6] = system: primary prostate cancer; experiment: Cytotoxic monotherapy with idronoxil suppository in theobroma oil base in prostate cancer patients, PSA follow-up; type: in vivo, human
Protocol: Patient receiving chemical castration therapy presenting with undetectable testosterone and receiving Zolodex for primary prostate cancer has a PSA doubling time of 6 weeks (PSA=9.6). Patient received suppository comprising 400 mg idronoxil in theobroma oil suppository base daily for 4 weeks. […] Suppository treatment was stopped for a period of 2 weeks and then continued for 2 weeks.
Patient receiving chemical castration therapy having urinary obstruction and pelvic discomfort receiving 400 mg idronoxil suppository formulation for primary prostate cancer (PSA=19). Patient received suppository comprising 800 mg idronoxil in theobroma oil suppository based daily in 2 week courses for 15 months. The suppository formulation slowed tumour growth to a doubling time of 6 months (PSA=67 at completion of 15 month therapy).

[7] = system: primary prostate cancer; experiment: Oral administration of idronoxil to a prostate cancer patient, PSA follow-up; type: in vivo, human; design: PSA at completion of 2 week period: unit not given here
Protocol: Patient receiving chemical castration therapy presenting with undetectable testosterone and receiving Zolodex for primary prostate cancer (PSA=3.4). Patient received 400 mg idronoxil daily by oral administration, increasing to 800 mg daily for 2 weeks. PSA at completion of 2 week period=6.7 indicating doubling time of 1 month.

[8] = Brown et al, 2008; cited from earlier work
[9] = system: late-stage ovarian cancer; settings: Phase 3, late-stage ovarian cancer, 142 women recruited (Fotopoulou et al. 2014); cited from earlier work
[10] = 400 mg theobroma oil suppository, after stop for 2 weeks, then continued for 2 weeks
[11] = suppository 800 mg in theobroma oil base daily in 2 week courses for 15 months, PSA at start 19

Row | Compound | clinical benefit [1] | tumour growth during treatment ([2]; 400 mg daily in olive oil base rectally) | PSA at completion of 2 week period ([2]; 400 mg daily in olive oil base rectally for 3 weeks, PSA at start 6.0) | sensitivity of colo-rectal cancer cell lines [3] | conjugation [4] | potency as an anti-cancer agent compared to genistein [5] | PSA score [6, 10] | effect on tumour growth [6, 10] | effect on tumour growth ([6]; suppository 400 mg in theobroma oil base daily for 4 weeks) | PSA score ([6]; suppository 400 mg in theobroma oil base daily for 4 weeks, PSA at start 9.6, doubling time 6 weeks) | PSA at completion of 15 month therapy [6, 11] | tumour doubling time [6, 11] [months] | effect on tumour doubling time ([7]; oral administration) | PSA doubling time ([7]; oral, 400 mg daily increasing to 800 mg daily for 2 weeks) [month] | PSA at completion of 2 week period ([7]; oral, 400 mg daily increasing to 800 mg daily for 2 weeks, chemical castration therapy, PSA at start 3.4) | susceptibility to Phase 1 metabolic processes [8] | clinical benefit [9]
1 | Oc1ccc(C2COc3cc(O)ccc3C2c2ccc(O)cc2)cc1 (centres unmarked) [ME-143, 4,4′-(7-hydroxychroman-3,4-diyl)diphenol] | failed to show any clinical benefit |  |  |  |  |  |  |  |  |  |  |  |  |  |  |  | 
2 | Oc1ccc(C2=Cc3ccc(O)cc3OC2)cc1 [idronoxil, 2H-1-Benzopyran-7-0,1,3-(4-hydroxyphenyl)] |  | continual growth of tumour during the treatment period | 9.6 | insensitivity | completely conjugated | about 10 × | 10 | inhibitory effect on tumour growth | effectively stopped tumour growth | 10 | 67 | 6 | failed to reduce tumour doubling time | 1 | 6.7 | not being particularly susceptible to Phase 1 metabolic processes | lack of any clinical benefit
